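Step 1: Grow cells in 96-well plates. Step 2: Expose to compound for 48 hours at 5 concentrations. Step 3: Interpolate endpoints linearly; if unreached, use highest concentration. At the TGI there is no net growth.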
Assays:
Experiment in all cases: NCI tumour cell line growth inhibition, 48 h
[1] = system: UACC-257 melanoma
[2] = system: A549 NSCLC
[3] = system: SNB-78 CNS
[4] = system: A498 renal
[5] = system: SK-OV-3 ovarian
[6] = system: OVCAR-8 ovarian
[7] = system: OVCAR-5 ovarian
[8] = system: OVCAR-4 ovarian
[9] = system: SNB-75 CNS
[10] = system: HOP-18 NSCLC
[11] = system: M14 melanoma
[12] = system: DLD-1 colon
[13] = system: HT29 colon
[14] = system: DMS 273 small cell lung
[15] = system: IGROV1 ovarian
[16] = system: XF 498 CNS
[17] = system: 786-0 renal
[18] = system: SW-620 colon
[19] = system: EKVX NSCLC
[20] = system: SN12C renal
[21] = system: SK-MEL-5 melanoma
[22] = system: HOP-92 NSCLC
[23] = system: SNB-19 CNS
[24] = system: ACHN renal
[25] = system: HCT-116 colon
[26] = system: RXF-631 renal
[27] = system: NCI-H522 lung
[28] = system: CAKI-1 renal
[29] = system: HCC-2998 colon
[30] = system: U251 CNS
[31] = system: OVCAR-3 ovarian
[32] = system: UO-31 renal
[33] = system: NCI-H460 lung
[34] = system: MALME-3M melanoma
[35] = system: HOP-62 NSCLC
[36] = system: UACC-62 melanoma
[37] = system: RXF 393 renal
[38] = system: M19-MEL melanoma
[39] = system: K-562 leukemia
[40] = system: KM12 colon
[41] = system: DMS 114 small cell lung
[42] = system: MOLT-4 leukemia
[43] = system: NCI-H23 lung
[44] = system: SF-539 CNS
[45] = system: SF-268 CNS
[46] = system: RPMI-8226 leukemia
[47] = system: SK-MEL-28 melanoma
[48] = system: NCI-H226 lung
[49] = system: HL-60(TB) leukemia
[50] = system: TK-10 renal
[51] = system: HCT-15 colon
[52] = system: SR leukemia
[53] = system: LXFL 529 NSCLC
[54] = system: KM20L2 colon
[55] = system: COLO 205 colon
[56] = system: LOX IMVI melanoma
[57] = system: SF-295 CNS
[58] = system: CCRF-CEM leukemia
[59] = system: SK-MEL-2 melanoma
[60] = system: NCI/ADR-RES ovarian
[61] = system: MCF7 breast
[62] = system: P388/ADR leukemia
[63] = system: SN12K1 renal
[64] = system: P388 leukemia

## Cc1ccc(S(=O)OC2c3ccccc3Cc3ccccc32)cc1 (stereo unspecified)
[1]
  TGI: 34.9 µM
[2]
  TGI: 87.2 µM
[3]
  TGI: 46.1 µM
[4]
  TGI: 42.8 µM
[5]
  TGI: 41.9 µM
[6]
  TGI: 28.9 µM
[7]
  TGI: 31.7 µM
[8]
  TGI: 33.2 µM
[9]
  TGI: 34.6 µM
[10]
  TGI: 59.4 µM
[11]
  TGI: 33.8 µM
[12]
  TGI: 58.5 µM
[13]
  TGI: > 100 µM
[14]
  TGI: 33 µM
[15]
  TGI: 45.6 µM
[16]
  TGI: 30.3 µM
[17]
  TGI: 48.1 µM
[18]
  TGI: 59.6 µM
[19]
  TGI: 34.5 µM
[20]
  TGI: 49.6 µM
[21]
  TGI: 37.1 µM
[22]
  TGI: 36.5 µM
[23]
  TGI: 59 µM
[24]
  TGI: 49 µM
[25]
  TGI: 35.8 µM
[26]
  TGI: 40.2 µM
[27]
  TGI: 27.1 µM
[28]
  TGI: 56.3 µM
[29]
  TGI: 33.8 µM
[30]
  TGI: 78.5 µM
[31]
  TGI: 44.5 µM
[32]
  TGI: 45.7 µM
[33]
  TGI: 46.2 µM
[34]
  TGI: 26.7 µM
[35]
  TGI: 34.3 µM
[36]
  TGI: 31.8 µM
[37]
  TGI: 26.8 µM
[38]
  TGI: 40.8 µM
[39]
  TGI: 62.1 µM
[40]
  TGI: 39.2 µM
[41]
  TGI: 34.8 µM
[42]
  TGI: 75.7 µM
[43]
  TGI: 33.8 µM
[44]
  TGI: 40.2 µM
[45]
  TGI: 47.1 µM
[46]
  TGI: > 100 µM
[47]
  TGI: 33.8 µM
[48]
  TGI: 37.1 µM
[49]
  TGI: 44 µM
[50]
  TGI: 64.3 µM
[51]
  TGI: 44.5 µM
[52]
  TGI: 70.8 µM
[53]
  TGI: 31.1 µM
[54]
  TGI: 47.2 µM
[55]
  TGI: 31.5 µM
[56]
  TGI: 28.8 µM
[57]
  TGI: 62.6 µM

## Cc1ccccc1C(C#N)/C(=N/NC(N)=S)C(=O)Nc1c(C)cccc1C (stereo unspecified)
[1]
  TGI: > 100 µM
[2]
  TGI: > 100 µM
[3]
  TGI: > 100 µM
[6]
  TGI: > 100 µM
[7]
  TGI: > 100 µM
[8]
  TGI: > 100 µM
[58]
  TGI: > 100 µM
[9]
  TGI: > 100 µM
[10]
  TGI: > 100 µM
[11]
  TGI: > 100 µM
[12]
  TGI: > 100 µM
[13]
  TGI: > 100 µM
[15]
  TGI: > 100 µM
[16]
  TGI: > 100 µM
[17]
  TGI: > 100 µM
[18]
  TGI: > 100 µM
[19]
  TGI: > 100 µM
[20]
  TGI: > 100 µM
[21]
  TGI: > 100 µM
[22]
  TGI: > 100 µM
[23]
  TGI: > 100 µM
[24]
  TGI: > 100 µM
[25]
  TGI: > 100 µM
[26]
  TGI: > 100 µM
[29]
  TGI: > 100 µM
[59]
  TGI: > 100 µM
[30]
  TGI: > 100 µM
[31]
  TGI: > 100 µM
[32]
  TGI: > 100 µM
[33]
  TGI: > 100 µM
[34]
  TGI: > 100 µM
[35]
  TGI: > 100 µM
[36]
  TGI: > 100 µM
[37]
  TGI: > 100 µM
[38]
  TGI: > 100 µM
[40]
  TGI: > 100 µM
[41]
  TGI: > 100 µM
[42]
  TGI: > 100 µM
[43]
  TGI: > 100 µM
[45]
  TGI: > 100 µM
[46]
  TGI: > 100 µM
[47]
  TGI: > 100 µM
[48]
  TGI: > 100 µM
[49]
  TGI: > 100 µM
[50]
  TGI: > 100 µM
[53]
  TGI: > 100 µM
[54]
  TGI: > 100 µM
[55]
  TGI: > 100 µM
[56]
  TGI: > 100 µM
[57]
  TGI: > 100 µM

## CC(=O)Nc1ccc(S(=O)(=O)N/N=C/c2cc(I)cc([N+](=O)[O-])c2O)cc1
[1]
  TGI: > 100 µM
[2]
  TGI: > 100 µM
[3]
  TGI: > 100 µM
[4]
  TGI: > 100 µM
[5]
  TGI: > 100 µM
[6]
  TGI: > 100 µM
[7]
  TGI: > 100 µM
[8]
  TGI: > 100 µM
[58]
  TGI: > 100 µM
[9]
  TGI: 91.6 µM
[10]
  TGI: 96.5 µM
[11]
  TGI: > 100 µM
[12]
  TGI: > 100 µM
[13]
  TGI: > 100 µM
[14]
  TGI: > 100 µM
[15]
  TGI: > 100 µM
[16]
  TGI: 74.6 µM
[17]
  TGI: > 100 µM
[18]
  TGI: > 100 µM
[19]
  TGI: > 100 µM
[20]
  TGI: > 100 µM
[21]
  TGI: > 100 µM
[23]
  TGI: > 100 µM
[24]
  TGI: > 100 µM
[26]
  TGI: > 100 µM
[28]
  TGI: > 100 µM
[29]
  TGI: > 100 µM
[59]
  TGI: > 100 µM
[30]
  TGI: > 100 µM
[31]
  TGI: > 100 µM
[32]
  TGI: > 100 µM
[33]
  TGI: > 100 µM
[34]
  TGI: > 100 µM
[36]
  TGI: 90.9 µM
[37]
  TGI: 85.2 µM
[38]
  TGI: > 100 µM
[39]
  TGI: > 100 µM
[40]
  TGI: > 100 µM
[41]
  TGI: > 100 µM
[42]
  TGI: > 100 µM
[43]
  TGI: 85 µM
[45]
  TGI: > 100 µM
[46]
  TGI: > 100 µM
[47]
  TGI: 98.7 µM
[48]
  TGI: > 100 µM
[49]
  TGI: > 100 µM
[50]
  TGI: > 100 µM
[51]
  TGI: > 100 µM
[54]
  TGI: > 100 µM
[55]
  TGI: > 100 µM
[56]
  TGI: > 100 µM
[57]
  TGI: > 100 µM

## S=c1sc2sc(=S)sc2s1
[1]
  TGI: > 100 µM
[2]
  TGI: > 100 µM
[3]
  TGI: > 100 µM
[4]
  TGI: 48.2 µM
[5]
  TGI: 33.9 µM
[6]
  TGI: > 100 µM
[7]
  TGI: 40.2 µM
[8]
  TGI: > 100 µM
[58]
  TGI: > 100 µM
[9]
  TGI: 82.6 µM
[10]
  TGI: > 100 µM
[11]
  TGI: 59 µM
[12]
  TGI: > 100 µM
[13]
  TGI: 78.9 µM
[14]
  TGI: > 100 µM
[15]
  TGI: > 100 µM
[17]
  TGI: > 100 µM
[18]
  TGI: > 100 µM
[20]
  TGI: > 100 µM
[21]
  TGI: > 100 µM
[22]
  TGI: > 100 µM
[23]
  TGI: > 100 µM
[24]
  TGI: > 100 µM
[25]
  TGI: > 100 µM
[26]
  TGI: 39.1 µM
[27]
  TGI: > 100 µM
[28]
  TGI: > 100 µM
[29]
  TGI: > 100 µM
[59]
  TGI: > 100 µM
[30]
  TGI: 49 µM
[32]
  TGI: 81.8 µM
[33]
  TGI: 47.7 µM
[34]
  TGI: > 100 µM
[35]
  TGI: > 100 µM
[36]
  TGI: > 100 µM
[37]
  TGI: > 100 µM
[38]
  TGI: 75.6 µM
[39]
  TGI: > 100 µM
[40]
  TGI: > 100 µM
[42]
  TGI: > 100 µM
[44]
  TGI: 57.8 µM
[45]
  TGI: > 100 µM
[46]
  TGI: > 100 µM
[49]
  TGI: 23.3 µM
[50]
  TGI: > 100 µM
[51]
  TGI: > 100 µM
[52]
  TGI: > 100 µM
[53]
  TGI: 26.9 µM
[54]
  TGI: > 100 µM
[55]
  TGI: > 100 µM
[56]
  TGI: > 100 µM
[57]
  TGI: 72 µM

## ClCc1nnc2n1-c1ccc(Cl)cc1SC2
[1]
  TGI: 9.8 µM
[2]
  TGI: 20.3 µM
[3]
  TGI: 18.9 µM
[4]
  TGI: 16.1 µM
[5]
  TGI: 12.6 µM
[6]
  TGI: > 39.5 µM
[7]
  TGI: 24.6 µM
[8]
  TGI: 12.6 µM
[58]
  TGI: 8.42 µM
[9]
  TGI: 10.3 µM
[10]
  TGI: 13.2 µM
[13]
  TGI: 10.2 µM
[14]
  TGI: 13 µM
[15]
  TGI: 8.09 µM
[16]
  TGI: 20 µM
[18]
  TGI: 24 µM
[19]
  TGI: > 51.9 µM
[20]
  TGI: 29.6 µM
[21]
  TGI: 9.49 µM
[22]
  TGI: 9.26 µM
[23]
  TGI: 25.7 µM
[25]
  TGI: 12.7 µM
[27]
  TGI: 3.21 µM
[29]
  TGI: 11 µM
[59]
  TGI: 9.22 µM
[30]
  TGI: 19.8 µM
[31]
  TGI: 8.09 µM
[32]
  TGI: 30.3 µM
[33]
  TGI: 14 µM
[60]
  TGI: 4.76 µM
[34]
  TGI: 15.8 µM
[61]
  TGI: 12.2 µM
[35]
  TGI: 17.4 µM
[36]
  TGI: 8.51 µM
[37]
  TGI: 9.79 µM
[62]
  TGI: > 25.2 µM
[38]
  TGI: 10.4 µM
[39]
  TGI: > 100 µM
[40]
  TGI: 15.1 µM
[63]
  TGI: 7.86 µM
[41]
  TGI: 9.58 µM
[42]
  TGI: 3.98 µM
[43]
  TGI: 8.2 µM
[44]
  TGI: 13.2 µM
[45]
  TGI: 9.55 µM
[46]
  TGI: > 100 µM
[47]
  TGI: 17.6 µM
[64]
  TGI: 4.24 µM
[48]
  TGI: 5.64 µM
[49]
  TGI: 3.51 µM
[51]
  TGI: 23.8 µM
[54]
  TGI: 15.9 µM
[55]
  TGI: 13 µM
[56]
  TGI: 2.82 µM
[57]
  TGI: 15.5 µM
